Measurements taken from patent US5331094A, “Purified active somatostatin receptor” (American Cyanamid Company, priority 1992, dated 1994).
Bridge positions count the residues as written; N and C are the ends. Square brackets hold non-standard residues; d marks the D form. Peptide text beside a SMILES is read from it. * marks the point of attachment. Biotin = O=C1N[C@H]2[C@H](CS[C@H]2CCCCC(=O)*)N1; Ahx = NCCCCCC(=O)O

Molecular target: SRIF receptor
Assay: Competitive radioligand binding assay with [125I]Tyr11-S14 and GH4 C1 membranes
Set-up: species or system rat
Conditions: for IC50: vs [125I]Tyr11-S14, 20 ug GH4 C1 membrane protein, 100,000 cpm radioligand (FIG. 1B)
Experimental: 1. Standard Binding Assays--Binding assays are done in a binding buffer containing 50 mM HEPES (pH 7.4), 0.5% BSA and 5 mM MgCl2. The standard assay for [^125 I]SRIF analog binding to GH4 C1 membranes, done in 96 well microtiter plates (Dynataech Immulon II Removawell plates), is carried out as follows: 1. Radioligand is diluted in binding buffer+ PMSF/Baci to the desired cpm per vol. of 50 μl and then 50 μl aliquots are added to the wells. For non-specific binding samples, 5 μl of 40 μM cold S14 is also added per well. 2. Binding is initiated by adding 150 μl per well of membrane diluted to the desired concentration (10-30 ug membrane protein/well) in binding buffer+ PMSF/Baci. Plates are then covered with Linbro mylar plate sealers (Flow Labs) and placed on a Dynatech Microshaker II and binding is allowed to proceed at room temperature for 1-2 hours. Binding is stopped by centrifuging the plate for 15 minutes at 2,000×g. The supernatants are dumped off and membrane pellets washed once by addition of 200 μl of ice cold binding buffer, brief shaking and recentrifugation. Finally the individual wells are placed in 12×75 mm tubes and counted in an LKB Gammamaster counter (78% efficiency). Specific binding by this method is identical to that measured when free ligand is removed by rapid (3-5 seconds) filtration and washing on polyethyleneimine-coated glass fiber filters.
2. competitive radioligand binding assays with a concentration range of cold ligand vs. [^125 I]SRIF are carried out as described above with one modification. All dilutions of SRIF analogs being assayed are made in 40×PMSF/Baci to a concentration 40× the final concentration in the assay. This gives very consistent results with a wide variety of SRIF structural analogs over a wide range of dilutions. 5 ul samples of peptide are then added per microtiter well. Membranes and radioligand are diluted out in binding buffer without protease inhibitors. Radioligand is added and mixed with cold peptides and then binding is initiated by addition of membranes.
These assays are carried out as described in "Methods: Receptor Binding Methods, 2". […] Therefore the Bio-6C-S14, Bio-12C-S14 and Bio-S28analogs are preferably synthesized. In Bio-S28, amino acid residues 1-14 are considered a spacer since residues 15-28 are equivalent to an S14 analog, having all the necessary structure for high affinity binding. The three spacer-containing biotinyl SRIFs show receptor binding activity similar to that of S14 (FIG. 1B; assays contained 20 ug of GH 4 C1 membrane protein and 100,000 cpm of radioligand). The IC50 s and relative potencies are S14 (0.2 nM)>Bio-S28(0.3 nM) >Bio-6C-S14 (2 nM)>Bio-12C-S14 (2 nM).

Row | Molecule | IC50 | potency relative to S14 in the competitive binding assay (FIG. 1A, 40 ug GH4 C1 membrane protein, 85,000 cpm radioligand)
1 | C[C@H](NC(=O)CCCCCNC(=O)CCCC[C@@H]1SC[C@@H]2NC(=O)N[C@@H]21)C(=O)NCC(=O)N[C@H]1CSSC[C@@H](C(=O)O)NC(=O)[C@H](CO)NC(=O)[C@H]([C@@H](C)O)NC(=O)[C@H](Cc2ccc(O)cc2)NC(=O)[C@H]([C@@H](C)O)NC(=O)[C@H](CCCCN)NC(=O)[C@H](Cc2c[nH]c3ccccc23)NC(=O)[C@H](Cc2ccccc2)NC(=O)[C@H](Cc2ccccc2)NC(=O)[C@H](CC(N)=O)NC(=O)[C@H](CCCCN)NC1=O [Bio-6C-S14, Biotinyl-[NH--(CH2)5 --CO]--NH-(Tyr11)SRIF14] ({Biotin-Ahx}-AGCKNFFWKTYTSC-OH; disulfide 3-14) | 2 nM | 
2 | C[C@H](NC(=O)CCCCCNC(=O)CCCCCNC(=O)CCCC[C@@H]1SC[C@@H]2NC(=O)N[C@@H]21)C(=O)NCC(=O)N[C@H]1CSSC[C@@H](C(=O)O)NC(=O)[C@H](CO)NC(=O)[C@H]([C@@H](C)O)NC(=O)[C@H](Cc2ccc(O)cc2)NC(=O)[C@H]([C@@H](C)O)NC(=O)[C@H](CCCCN)NC(=O)[C@H](Cc2c[nH]c3ccccc23)NC(=O)[C@H](Cc2ccccc2)NC(=O)[C@H](Cc2ccccc2)NC(=O)[C@H](CC(N)=O)NC(=O)[C@H](CCCCN)NC1=O [Bio-12C-S14, Biotinyl-[NH-(CH2)5 -CO]2 -NH-(Tyr11)SRIF14] ({Biotin-Ahx-Ahx}-AGCKNFFWKTYTSC-OH; disulfide 3-14 (inferred); C-terminus assumed) | 2 nM | 
3 | CC(C)C[C@H](NC(=O)[C@H](C)NC(=O)[C@@H]1CCCN1C(=O)[C@H](CC(N)=O)NC(=O)[C@H](CO)NC(=O)[C@H](CC(N)=O)NC(=O)[C@H](C)NC(=O)[C@H](CO)NC(=O)CCCC[C@@H]1SC[C@@H]2NC(=O)N[C@@H]21)C(=O)N[C@@H](C)C(=O)N1CCC[C@H]1C(=O)N[C@@H](CCCNC(=N)N)C(=O)N[C@@H](CCC(=O)O)C(=O)N[C@@H](CCCNC(=N)N)C(=O)N[C@@H](CCCCN)C(=O)N[C@@H](C)C(=O)NCC(=O)N[C@H]1CSSC[C@@H](C(=O)O)NC(=O)[C@H](CO)NC(=O)[C@H]([C@@H](C)O)NC(=O)[C@H](Cc2ccc(O)cc2)NC(=O)[C@H]([C@@H](C)O)NC(=O)[C@H](CCCCN)NC(=O)[C@@H](Cc2c[nH]c3ccccc23)NC(=O)[C@H](Cc2ccccc2)NC(=O)[C@H](Cc2ccccc2)NC(=O)[C@H](CC(N)=O)NC(=O)[C@H](CCCCN)NC1=O [Bio-S28, Biotinyl-NH-(Leu8, D-Trp22, Tyr25)SRIF28] (Biotin-SANSNPALAPRERKAGCKNFF[dW]KTYTSC-OH; disulfide 17-28 (inferred); C-terminus assumed) | 0.3 nM | 
4 | C[C@H](N)C(=O)NCC(=O)N[C@H]1CSSC[C@@H](C(=O)O)NC(=O)[C@H](CO)NC(=O)[C@H]([C@@H](C)O)NC(=O)[C@H](Cc2ccccc2)NC(=O)[C@H]([C@@H](C)O)NC(=O)[C@H](CCCCN)NC(=O)[C@H](Cc2c[nH]c3ccccc23)NC(=O)[C@H](Cc2ccccc2)NC(=O)[C@H](Cc2ccccc2)NC(=O)[C@H](CC(N)=O)NC(=O)[C@H](CCCCN)NC1=O [S14, reference compound] | 0.2 nM | 
5 | Biotinyl-NH-SRIF14 [Biotinyl-NH-S14] |  | about 1.5%
